The test system of data set [1] is Mtb guaB2-guaB3 Tet-OFF attB::guaB3 and guaB2-guaB3 Tet-OFF. The data set is classed as cell-based, Mycobacterium tuberculosis.
The test system of data set [2] is Mtb H37Rv. Put plainly: Checkerboard assay, purine supplementation versus VCC234718. The class given is cell-based, Mycobacterium tuberculosis. The conditions noted are these: for MIC90: Mycobacterium tuberculosis, H37RV.
Data set [3] deals with Mtb guaB2-guaB3 Tet-OFF attB::guaB3. Put plainly: microbe, parasite or virus in culture. The data set is classed as cell-based, Mycobacterium tuberculosis. Conditions: for effect of guaB2 silencing on susceptibility: data not shown.
For data set [4] the following is noted: human primary hepatocytes.
The subject of data set [5] is Mtb SRMV2.6 attB::guaB2. Put plainly: MIC by AlamarBlue assay. The class given is cell-based. The conditions noted are these: Mycobacterium tuberculosis. Background: Alamar Blue is a resazurin reagent that responds to reducing activity.
Data set [6] concerns Mtb SRMV2.3. Put plainly: microbe, parasite or virus in culture. The class given is cell-based. Conditions: Mycobacterium tuberculosis.
Data set [7] has as its system Mtb SRMV2.6 attB::guaB2-guaB3. Put plainly: MIC by AlamarBlue assay. The data set is classed as cell-based. Conditions: Mycobacterium tuberculosis.
In data set [8] the test system is Mtb SRMV2.6. Put plainly: microbe, parasite or virus in culture. The data set is classed as cell-based, Mycobacterium tuberculosis.
For data set [9] the following is noted: human and rodent liver microsomes and human liver primary hepatocytes. A general note: Liver microsomes are a subcellular fraction often used to study metabolism.
Data set [10] addresses Mtb GuaB2 (Mycobacterium tuberculosis, UniProt P9WKI7). Put plainly: biochemical. The conditions noted are these: for pKi: Ki.
For data set [11], the system named is Mtb H37Rv (H37RvMA). Put plainly: MIC by broth microdilution, AlamarBlue assay. Conditions: Mycobacterium tuberculosis. The data set is classed as cell-based.
Data set [12] deals with human ERG channel (Homo sapiens, UniProt Q12809). Put plainly: cell-based.
The test system of data set [13] is Mtb H37Rv. Put plainly: Time-kill kinetics. The data set is classed as cell-based. Conditions: Mycobacterium tuberculosis, read-out: 99% minimum bactericidal concentration (MBC99).
For data set [14], the system named is Caco-2/TC-7 cell monolayers. The conditions noted are these: threshold value 20 × 10^–7 cm s^–1.
Data set [15] has as its system nonreplicating, streptomycin-starved Mtb 18b or 18b-Lux. Put plainly: Activity against nonreplicating bacilli. The class given is cell-based, Mycobacterium tuberculosis. Conditions: concentrations up to 20 μM.
Data set [16] concerns Corynebacterium glutamicum. The conditions noted are these: phenotypic screen; cited from earlier work.
For data set [17], the system named is Mtb-infected MRC-5 fibroblasts. The data set is classed as cell-based, human. The conditions noted are these: concentration up to 50 μM.
The test system of data set [18] is Mtb H37Rv attB::guaB2. Put plainly: MIC by AlamarBlue assay. The data set is classed as cell-based. Conditions: Mycobacterium tuberculosis.
Data set [19] concerns PDIM-deficient H37Rv strain (H37RvJO). Put plainly: MIC by AlamarBlue assay. The data set is classed as cell-based. The conditions noted are these: Mycobacterium tuberculosis.
Data set [20] deals with Mtb-infected activated THP-1 macrophages. The class given is cell-based, human.
Data set [21] has as its system Mtb H37Rv attB::guaB2-guaB3. Put plainly: MIC by AlamarBlue assay. The conditions noted are these: Mycobacterium tuberculosis. The data set is classed as cell-based.
Data set [22] deals with Mtb SRMV2.10. Put plainly: microbe, parasite or virus in culture. The class given is cell-based. The conditions noted are these: Mycobacterium tuberculosis.
Data set [23] deals with replicating H37Rv. Put plainly: microbe, parasite or virus in culture. The data set is classed as cell-based, Mycobacterium tuberculosis.

pIC50, pKi: −log10 of the molar value. ≈ marks a conversion by molar mass, not a printed value. Entries after “also recorded” stand apart in the source; their conditions may differ.

Chain of Mtb GuaB2 (P9WKI7 whole entry, looked up): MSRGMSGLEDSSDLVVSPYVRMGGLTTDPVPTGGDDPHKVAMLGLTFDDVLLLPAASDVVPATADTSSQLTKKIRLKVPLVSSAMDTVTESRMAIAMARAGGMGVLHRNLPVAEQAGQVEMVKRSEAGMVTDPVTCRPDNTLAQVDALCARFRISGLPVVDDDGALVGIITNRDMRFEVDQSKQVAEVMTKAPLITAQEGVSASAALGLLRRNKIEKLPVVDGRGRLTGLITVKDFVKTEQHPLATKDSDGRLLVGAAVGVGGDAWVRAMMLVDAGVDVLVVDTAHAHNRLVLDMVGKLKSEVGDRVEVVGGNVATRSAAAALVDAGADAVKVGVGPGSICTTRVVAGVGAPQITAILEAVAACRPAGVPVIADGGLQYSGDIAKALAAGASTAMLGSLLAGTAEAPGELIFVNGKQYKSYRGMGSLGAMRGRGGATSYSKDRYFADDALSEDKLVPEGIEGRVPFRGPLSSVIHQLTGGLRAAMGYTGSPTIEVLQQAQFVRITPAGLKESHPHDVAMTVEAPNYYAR
Chain of human ERG channel (Q12809 whole entry): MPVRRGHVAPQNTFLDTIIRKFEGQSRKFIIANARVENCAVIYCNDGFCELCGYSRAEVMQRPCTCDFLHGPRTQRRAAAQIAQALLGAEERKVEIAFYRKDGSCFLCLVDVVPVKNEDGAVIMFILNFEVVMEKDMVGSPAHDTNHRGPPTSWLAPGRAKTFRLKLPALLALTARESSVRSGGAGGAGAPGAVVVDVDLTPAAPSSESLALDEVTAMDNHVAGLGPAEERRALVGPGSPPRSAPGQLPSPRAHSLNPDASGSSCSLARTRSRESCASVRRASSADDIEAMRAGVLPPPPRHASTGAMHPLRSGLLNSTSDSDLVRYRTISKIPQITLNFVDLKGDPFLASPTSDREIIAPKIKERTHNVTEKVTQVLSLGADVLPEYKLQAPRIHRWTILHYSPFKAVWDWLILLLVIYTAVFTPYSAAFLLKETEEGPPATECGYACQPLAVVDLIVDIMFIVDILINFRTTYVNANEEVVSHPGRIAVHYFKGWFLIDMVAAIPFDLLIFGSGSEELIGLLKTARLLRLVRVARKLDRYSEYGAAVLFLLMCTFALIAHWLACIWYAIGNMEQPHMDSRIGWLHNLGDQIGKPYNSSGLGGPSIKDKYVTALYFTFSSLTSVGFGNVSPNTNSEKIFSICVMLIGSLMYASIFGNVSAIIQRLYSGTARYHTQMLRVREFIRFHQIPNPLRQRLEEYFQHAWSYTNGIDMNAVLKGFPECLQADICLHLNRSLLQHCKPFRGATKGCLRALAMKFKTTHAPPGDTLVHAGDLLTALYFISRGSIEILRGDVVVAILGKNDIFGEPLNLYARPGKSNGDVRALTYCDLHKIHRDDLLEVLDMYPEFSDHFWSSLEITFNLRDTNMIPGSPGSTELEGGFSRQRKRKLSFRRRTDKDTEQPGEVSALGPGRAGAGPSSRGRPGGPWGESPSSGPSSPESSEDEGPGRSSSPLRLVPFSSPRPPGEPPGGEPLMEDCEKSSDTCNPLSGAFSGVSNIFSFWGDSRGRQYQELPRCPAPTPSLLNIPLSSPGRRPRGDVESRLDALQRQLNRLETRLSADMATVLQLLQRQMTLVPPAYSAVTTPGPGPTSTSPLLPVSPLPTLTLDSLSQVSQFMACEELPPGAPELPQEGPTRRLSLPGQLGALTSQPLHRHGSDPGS

For the compound `Nc1nc2nc[nH]c2c(=O)[nH]1` [guanine], in data set [1], the “guanine concentration giving essentially complete rescue from ATc toxicity” value is ≥ 125 µM. The “rescue of Mtb from VCC234718 toxicity” value in data set [2] (VCC234718 at 128 μM) was “unable to rescue”.

In the case of `O=c1[nH]c(=O)c2nc[nH]c2[nH]1` [xanthine], in data set [2], the “effect of supplementation on VCC234718 toxicity” value (from here on “effect of supplementation”) is on record as “no effect”.

As for `CC[C@@H](CO)NCCN[C@@H](CC)CO` [ethambutol], the “effect of guaB2 silencing on susceptibility” value (from here on “effect of guaB2 silencing”) in data set [3] is “no effect”.

With `[H]/N=C(/N)N[C@H]1[C@H](O)[C@@H](O)[C@H](O[C@@H]2O[C@@H](C)[C@](O)(C=O)[C@H]2O[C@@H]2O[C@@H](CO)[C@H](O)[C@@H](O)[C@@H]2NC)[C@@H](N/C(N)=N\[H])[C@@H]1O` [streptomycin], the “effect of guaB2 silencing” value in data set [3] is given as “no effect”.

On to `CO[C@H]1/C=C/O[C@@]2(C)Oc3c(C)c(O)c4c(O)c(c(/C=N/N5CCN(C)CC5)c(O)c4c3C2=O)NC(=O)/C(C)=C\C=C\[C@H](C)[C@H](O)[C@@H](C)[C@@H](O)[C@@H](C)[C@H](OC(C)=O)[C@@H]1C` [rifampicin], for which the “effect of guaB2 silencing” value in [3] is “no effect”.

As usually defined, the pKi is the negative decadic logarithm of the Ki, by convention in mol/L. What is called pIC50 is the IC50 on a negative log10 scale, so that one unit is a factor of ten. Read a high pIC50 as a small IC50. A word on the inhibition: it is the share of the control response that was lost under treatment. With `O=C(C1CCCCC1)N1CCN(S(=O)(=O)c2cccc3cnccc23)CC1` [VCC234718, N-(5-Isoquinolinylsulfonyl)-N’-cyclohexanoyl-piperazine], the “contribution of CYP3A4 to metabolism (in words)” value in data set [4] was “no contribution”. The MIC90 in data set [5] is > 200 µM; in [6], 16 µM (≈ 6.2 µg/mL); in data set [7] it was > 200 µM; in data set [8] (Mycobacterium tuberculosis, SRMV2.6), > 100 µM; in data set [8] (strain SRMV2.6), >100 µM; in [11], 2 µM (≈ 0.775 µg/mL). Besides, the MIC90 is 4 to 8 µM (≈ 1.55 to 3.1 µg/mL) in [18]; 2 µM (≈ 0.775 µg/mL) in data set [19]; 2.5 µM in [3] (Mycobacterium tuberculosis, checkerboard, before guaB2 silencing (lowest ATc)); 2 µM in data set [2] (checkerboard, without guanine); > 64 µM in [2] (guanine concentration of 200 μM); 4 to 8 µM (≈ 1.55 to 3.1 µg/mL) in data set [21]. Besides, the MIC90 in [22] stood at 8 µM (≈ 3.1 µg/mL); in [23] (Mycobacterium tuberculosis, H37RV, read-out: 90% minimum inhibitory concentration (MIC90)), 5 µM (≈ 1.94 µg/mL). The “metabolism (in words)” value in data set [9] is on record as “highly metabolized”. The negative-log Ki (pKi) in data set [10] (Mtb GuaB2) is 7.00; in [10] (Mtb GuaB2, IMP as the substrate), 6.92. For the same compound, the mechanism of inhibition result in data set [10] (with respect to IMP and NAD+) is given as “uncompetitive”. The compound also gave a pIC50 in data set [12] of 4.86. The MBC in data set [13] was 16 to 32 µM (≈ 6.2 to 12.4 µg/mL). Also, the “permeability (in words)” value in data set [14] is “very high”. Also, in [15], the “inhibition of nonreplicating Mtb” value is listed as “not significantly inhibiting”. For the same compound, the whole-cell activity result in data set [16] is reported as “not against Corynebacterium glutamicum”. The “anticytolytic activity in MRC-5 fibroblasts” value in data set [17] was “completely inactive”. Further, the “concentrations displaying anticytolytic activity in activated THP-1 macrophages” value in data set [20] was > 1 µM. In data set [23] (Mycobacterium tuberculosis, H37RV, 168 h, read-out: percentage inhibition of resazurin reduction), the inhibition at 20 µM was > 80%. In addition, the “inhibition of H37Rv growth” value in data set [23] (at 20 μM) is given as “totally inhibit”.

For `Nc1ncnc2[nH]cnc12` [adenine], the “effect of supplementation” value in [2] is on record as “neither adenine nor guanosine supplementation was able to rescue”.

With `NNC(=O)c1ccncc1` [isoniazid], the “effect of guaB2 silencing” value in data set [3] is given as “no effect”.

As to `C[C@H]1COc2c(N3CCN(C)CC3)c(F)cc3c(=O)c(C(=O)O)cn1c23` [levofloxacin], the “effect of guaB2 silencing” value in data set [3] is “no effect”.

Regarding `Nc1nc2c(ncn2[C@@H]2O[C@H](CO)[C@@H](O)[C@H]2O)c(=O)[nH]1` [guanosine], in data set [2], the “effect of supplementation” value is listed as “neither adenine nor guanosine supplementation was able to rescue; also recorded: failed to rescue”.
